Laboratory results from patent US20240197694A1, “MODIFIED PROTEINS AND PROTEIN BINDERS” (Cullgen (Shanghai), Inc., priority 2021, published 2024).

Each molecule was assayed against T1, DCAF1 (1058-1396) (Homo sapiens, UniProt Q9Y4B6) (assay: Surface plasmon resonance (SPR) binding assay, compound binding to DCAF1). Conditions: immobilized DCAF1 (1058-1396), steady state affinity model, 25° C.
T1 construct: a fragment of a DCAF1 protein that includes amino acid residues A1058 to E1396; His6 (N, cleaved yes); made in house; host or cells: Sf9 insect cells (Bac-to-Bac baculovirus, pFastBacHT vector)
Description: Binding affinities of specific exemplary compounds to DCAF1 (1058-1396), which is a fragment of a DCAF1 protein that includes amino acid residues A1058 to E1396 were determined by a surface plasmon resonance (SPR) assay. Briefly, purified DCAF1 (1058-1396) proteins were immobilized at a density of 9,000-11,000 resonance units (RUs) on a CMS sensor chip. Sensorgrams were recorded at different concentrations of compounds in multi-cycle kinetic format. Data were analyzed using a steady state affinity model through Biacore Evaluation Software to provide equivalent dissociation constants (Kd).
Binding affinities of compounds to DCAF1 were determined by a surface plasmon resonance (SPR) assay. Purified DCAF1 (1058-1396) proteins were immobilized on a CMS sensor chip, and a dose range of compound solutions were injected in multi-cycle kinetic format. Data were analyzed using a steady state model to provide equivalent dissociation constants (Kd).
Protein Expression and Purification: Human DCAF1 (1058-1396) (UniPro: Q9Y4B6) coding sequences were cloned into pFastBacHT vector and were expressed in Sf9 cells using Bac-to-Bac baculovirus expression system (Thermo Fisher Scientific). The expression construct for DCAF1 (1058-1396) included a N-terminal His6-tag to facilitate the purification. DCAF1 (1058-1396) proteins were obtained from supernatants of cell lysates and purified through sequential application of Ni affinity chromatography (Ni-NTA column, Bio-Rad), Tag removal using TEV protease, and size-exclusion chromatography (Superdex 200 column, GE Healthcare).
Surface plasmon resonance (SPR) binding assays: SPR studies were performed on a Biacore X100 plus or T200 instrument (GE Healthcare). Immobilization of purified DCAF1 (1058-1396) was carried out at 25° C. using a CMS sensor chip. The surface was pre-equilibrated in HBS-EP running buffer (10 mM HEPES, pH 7.4, 150 mM NaCl, 3 mM EDTA, 0.05% P20), before being activated with EDC/NHS. DCAF1 (1058-1396) was immobilized through amino groups to a density of 9,000-12,000 resonance units (RUs) on flow cell channel 2 (FC2), whereas flow cell channel 1 (FC1) was used as reference. Both DCAF1 immobilized and reference surfaces were deactivated with 1 M ethanolamine.
Interaction experiments were performed at 25° C. The compounds were prepared and serially diluted in HBS-EP running buffer containing final 2% DMSO (6-point two-fold serial dilution, 100 μM -3.125 μM final concentration of compounds). Compound Solutions were injected individually in multi-cycle kinetic format without regeneration (flow rate 30 μL/min, association time 60 s, dissociation time 60 s). Sensorgrams from reference surfaces and blank injections were subtracted from the raw data (double-referenced) and the data was solvent-corrected prior to analysis. Data were analyzed using a steady state affinity model through Biacore Evaluation Software to provide equivalent dissociation constants (Kd).

T1 sequence (Q9Y4B6 1058-1396): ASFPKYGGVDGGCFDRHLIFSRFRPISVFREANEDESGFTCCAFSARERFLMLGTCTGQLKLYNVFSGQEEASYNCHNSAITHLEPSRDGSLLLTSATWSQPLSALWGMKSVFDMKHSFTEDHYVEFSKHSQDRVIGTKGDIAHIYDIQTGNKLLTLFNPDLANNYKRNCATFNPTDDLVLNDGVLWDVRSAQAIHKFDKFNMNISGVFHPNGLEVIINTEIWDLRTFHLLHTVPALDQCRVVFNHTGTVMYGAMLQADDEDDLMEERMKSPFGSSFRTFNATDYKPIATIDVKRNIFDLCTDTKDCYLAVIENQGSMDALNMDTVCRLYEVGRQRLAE

Q: How did the Kd turn out when `Cc1ccc2[nH]c3c(c2c1)CN(CCc1cnn[nH]1)CC3` [CPD-013, 2-(2-(1H-1,2,3-triazol-5-yl)ethyl)-8-methyl-2,3,4,5-tetrahydro-1H-pyrido[4,3-b]indole] was run?
A: Its Kd is 40 to 70 µM.

Q: `CN1CCc2c(c3ccccc3n2Cc2ccccc2)C1` [CPD-058, 5-benzyl-2-methyl-2,3,4,5-tetrahydro-1H-pyrido[4,3-b]indole] was tested. Which Kd did it give?
A: The Kd was 70 to 100 µM.

Q: Which Kd does the source give for `COC(CN1CCc2[nH]c3ccc(F)cc3c2C1)OC` [CPD-051, 2-(2,2-dimethoxyethyl)-8-fluoro-2,3,4,5-tetrahydro-1H-pyrido[4,3-b]indole] here?
A: Its Kd is no more than 40 µM.

Q: `Cc1cccc2c1[C@@H]1CN(C)CC[C@H]1N2` (racemic) [CPD-039, trans-2,9-dimethyl-2,3,4,4a,5,9b-hexahydro-1H-pyrido [4,3-b]indole] was tested. Which Kd did it give?
A: The Kd was greater than 100 µM.

Q: With `Cc1ccc2c(c1)C1CN(C)CCC1N2C(=O)/C=C/c1cccc(C(F)(F)F)c1` (centres unmarked) [CPD-075, (E)-1-(2,8-dimethyl-1,2,3,4,4a,9b-hexahydro-5H-pyrido [4,3-b]indol-5-yl)-3-(3-(trifluoromethyl)phenyl)prop-2-en-1-one] as the molecule, how does the Kd read?
A: Its Kd is greater than 100 µM.

Q: `OCCOc1cccc(CNCc2cnc[nH]2)c1` [CPD-103, 2-(3-((((1H-imidazol-5-yl)methyl)amino)methyl)phenoxy)ethan-1-ol] was tested. Which Kd did it give?
A: Its Kd is greater than 100 µM.

Q: Which Kd does the source give for `c1ccc2c3c([nH]c2c1)CCN(CCc1ccncc1)C3` [CPD-045, 2-(2-(pyridin-4-yl)ethyl)-2,3,4,5-tetrahydro-1H-pyrido[4,3-b]indole] here?
A: Its Kd is 40 to 70 µM.

Q: `COC(=O)NCCN1CCc2ccccc2C1` [CPD-023, methyl (2-(3,4-dihydroisoquinolin-2(1H)-yl)ethyl)carbamate] was tested. Which Kd did it give?
A: Its Kd is 70 to 100 µM.

Q: With `Cc1ccc(C(=O)N[C@H](C(=O)N2c3ccc(C)cc3C3CN(C)CCC32)C(C)C)cc1` (stereo partly drawn) [CPD-079, N-((2S)-1-(2,8-dimethyl-1,2,3,4,4a,9b-hexahydro-5H-pyrido [4,3-b]indol-5-yl)-3-methyl-1-oxobutan-2-yl)-4-methylbenzamide] as the molecule, how does the Kd read?
A: Its Kd is greater than 100 µM.

Q: How did the Kd turn out when `Cc1ccc2c(c1)c1c(n2C)CC[N+](C)(C)C1` [CPD-020, 2,2,5,8-tetramethyl-2,3,4,5-tetrahydro-1H-2λ^4-pyrido[4,3-b]indol-3-ylium] was run?
A: The Kd was greater than 100 µM.

Q: With `CN1Cc2ccccc2CC1CNC(=O)c1cncc(O)n1` (centres unmarked) [CPD-015, 6-hydroxy-N-((2-methyl-1,2,3,4-tetrahydroisoquinolin-3-yl)methyl)pyrazine-2-carboxamide] as the molecule, how does the Kd read?
A: The Kd was greater than 100 µM.

Q: For `Cc1ccc2c(c1)C1CN(C)CCC1N2C(=O)c1cc(C#N)oc1C` (centres unmarked) [CPD-072, 4-(2,8-dimethyl-2,3,4,4a,5,9b-hexahydro-1H-pyrido[4,3-b]indole-5-carbonyl)-5-methylfuran-2-carbonitrile], which Kd is on record?
A: Its Kd is greater than 100 µM.

Q: `CN1Cc2cc(NCCOCCOCCOCCN)ccc2CC1CNc1ncccc1F` (centres unmarked) [CPD-017, N-(2-(2-(2-(2-aminoethoxy)ethoxy)ethoxy)ethyl)-3-(((3-fluoropyridin-2-yl)amino)methyl)-2-methyl-1,2,3,4-tetrahydroisoquinolin-7-amine] was tested. Which Kd did it give?
A: Its Kd is 40 to 70 µM.

Q: Which Kd does the source give for `NCCOCCOCCOCCn1c2c(c3cc(F)ccc31)CN(CCc1cnn[nH]1)CC2` [CPD-016, 2-(2-(2-(2-(2-(2-(1H-1,2,3-triazol-5-yl)ethyl)-8-fluoro-1,2,3,4-tetrahydro-5H-pyrido[4,3-b]indol-5-yl)ethoxy)ethoxy)ethoxy)ethan-1-amine] here?
A: The Kd was 40 to 70 µM.

Q: With `c1ncc(CNCc2ccc3cc[nH]c3c2)[nH]1` [CPD-029, N-((1H-imidazol-5-yl)methyl)-1-(1H-indol-6-yl)methanamine] as the molecule, how does the Kd read?
A: The Kd was greater than 100 µM.

Q: Which Kd does the source give for `Cc1ccc2c(c1)C1CN(C)CCC1N2C(=O)c1ccnc(OCC(F)F)c1` (centres unmarked) [CPD-069, (2-(2,2-difluoroethoxy)pyridin-4-yl)(2,8-dimethyl-1,2,3,4,4a,9b-hexahydro-5H-pyrido[4,3-b]indol-5-yl)methanone] here?
A: Its Kd is greater than 100 µM.

Q: `Cc1ccc2c(c1)[C@@H]1CN(C)CC[C@H]1N2C` (racemic) [CPD-034, trans-2,5,8-trimethyl-2,3,4,4a,5,9b-hexahydro-1H-pyrido[4,3-b]indole] was tested. Which Kd did it give?
A: The Kd was greater than 100 µM.

Q: With `Cc1ccc2c(c1)C1CN(C)CCC1N2C(=O)/C=C/c1ccc2c(c1)OCO2` (centres unmarked) [CPD-086, (E)-3-(benzo[d][1,3]dioxol-5-yl)-1-(2,8-dimethyl-1,2,3,4,4a,9b-hexahydro-5H-pyrido[4,3-b]indol-5-yl) prop-2-en-1-one] as the molecule, how does the Kd read?
A: Its Kd is greater than 100 µM.

Q: With `Cc1ccc(S(=O)(=O)c2nc(N3c4ccc(C)cc4C4CN(C)CCC43)sc2Cl)cc1` (centres unmarked) [CPD-062, 5-chloro-2-(2,8-dimethyl-1,2,3,4,4a,9b-hexahydro-5H-pyrido [4,3-b]indol-5-yl)-4-tosylthiazole] as the molecule, how does the Kd read?
A: Its Kd is greater than 100 µM.

Q: For `NCCCCCCn1cccc1CNCc1ccncc1` [CPD-005, 6-(2-(((pyridin-4-ylmethyl)amino)methyl)-1H-pyrrol-1-yl)hexan-1-amine], which Kd is on record?
A: Its Kd is 40 to 70 µM.

Q: With `CN1Cc2cc(NCCCCCCN)ccc2CC1CNc1ncccc1F` (centres unmarked) [CPD-018, N1-(3-(((3-fluoropyridin-2-yl)amino)methyl)-2-methyl-1,2,3,4-tetrahydroisoquinolin-7-yl)hexane-1,6-diamine] as the molecule, how does the Kd read?
A: The Kd was 40 to 70 µM.

Q: Which Kd does the source give for `Cc1ccc2c(c1)[C@@H]1CN(C)CC[C@H]1N2` (racemic) [CPD-032, trans-2,8-dimethyl-2,3,4,4a,5,9b-hexahydro-1H-pyrido [4,3-b]indole] here?
A: The Kd was greater than 100 µM.

Q: `CN1CCc2c(c3ccccc3n2CCC(N)=O)C1` [CPD-060, 3-(2-methyl-1,2,3,4-tetrahydro-5H-pyrido[4,3-b]indol-5-yl)propanamide] was tested. Which Kd did it give?
A: Its Kd is 70 to 100 µM.

Q: `Cc1ccc(CNCc2cnc[nH]2)o1` [CPD-024, N-((1H-imidazol-5-yl)methyl)-1-(5-methylfuran-2-yl) methanamine] was tested. Which Kd did it give?
A: Its Kd is greater than 100 µM.

Q: How did the Kd turn out when `CN(CC1Cc2ccccc2CN1C)C(=O)/C=C/c1cc(CO)cs1` (centres unmarked) [CPD-097, (E)-3-(4-(hydroxymethyl)thiophen-2-yl)-N-methyl-N-((2-methyl-1,2,3,4-tetrahydroisoquinolin-3-yl)methyl)acrylamide] was run?
A: Its Kd is greater than 100 µM.

Q: How did the Kd turn out when `Cc1ccc2c(c1)C1CN(C)CCC1N2C(=O)/C=C/c1ccc(F)cc1` (centres unmarked) [CPD-084, (E)-1-(2,8-dimethyl-1,2,3,4,4a,9b-hexahydro-5H-pyrido [4,3-b]indol-5-yl)-3-(4-fluorophenyl)prop-2-en-1-one] was run?
A: Its Kd is 40 to 70 µM.

Q: With `Cn1cccc1CNCc1ccccn1` [CPD-003, 1-(1-methyl-1H-pyrrol-2-yl)-N-(pyridin-2-ylmethyl)methanamine] as the molecule, how does the Kd read?
A: Its Kd is greater than 100 µM.

Q: With `Cc1ccc2c(c1)C1CN(C)CCC1N2C(=O)c1cc2c(C)nn(-c3ccc(Cl)cc3)c2s1` (centres unmarked) [CPD-074, (1-(4-chlorophenyl)-3-methyl-1H-thieno[2,3-c]pyrazol-5-yl)(2,8-dimethyl-1,2,3,4,4a,9b-hexahydro-5H-pyrido[4,3-b]indol-5-yl)methanone] as the molecule, how does the Kd read?
A: The Kd was greater than 100 µM.

Q: How did the Kd turn out when `Cn1cccc1CNCc1ccncc1` [CPD-001, 1-(1-methyl-1H-pyrrol-2-yl)-N-(pyridin-4-ylmethyl)methanamine] was run?
A: Its Kd is 40 to 70 µM.

Q: `COc1cc(C)cc(CNCc2cnc[nH]2)c1` [CPD-028, N-((1H-imidazol-5-yl)methyl)-1-(3-methoxy-5-methylphenyl) methanamine] was tested. Which Kd did it give?
A: The Kd was greater than 100 µM.

Q: `COc1nccc(C(=O)N2c3ccc(C)cc3C3CN(C)CCC32)n1` (centres unmarked) [CPD-063, (2,8-dimethyl-1,2,3,4,4a,9b-hexahydro-5H-pyrido[4,3-b]indol-5-yl)(2-methoxypyrimidin-4-yl)methanone] was tested. Which Kd did it give?
A: Its Kd is greater than 100 µM.

Q: `CN1Cc2ccccc2CC1CNC(=O)Nc1ccc2c(c1)nnn2C` (centres unmarked) [CPD-096, 1-((2-methyl-1,2,3,4-tetrahydroisoquinolin-3-yl)methyl)-3-(1-methyl-1H-benzo [d][1,2,3]triazol-5-yl)urea] was tested. Which Kd did it give?
A: Its Kd is greater than 100 µM.

Q: With `CC(C)N1CCc2c(c3ccccc3n2CC(=O)O)C1` [CPD-010, 2-(2-isopropyl-1,2,3,4-tetrahydro-5H-pyrido[4,3-b]indol-5-yl)acetic acid] as the molecule, how does the Kd read?
A: Its Kd is greater than 100 µM.

Q: Which Kd does the source give for `Cc1ccc2c(c1)[C@H]1CN(C)CC[C@H]1N2` (racemic) [CPD-033, cis-2,8-dimethyl-2,3,4,4a,5,9b-hexahydro-1H-pyrido[4,3-b]indole] here?
A: The Kd was greater than 100 µM.

Q: How did the Kd turn out when `CCN1CCc2[nH]c3ccccc3c2C1` [CPD-043, 2-ethyl-2,3,4,5-tetrahydro-1H-pyrido[4,3-b]indole] was run?
A: The Kd was 40 to 70 µM.
